Experiment [1] concerns MCF-10A. The conditions noted are these: 72 h. As to the method:
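Drug sensitivity and resistance testing (DSRT) of breast cancer cell lines in 384-well plates, 5 concentrations in 10-fold dilutions over a compound-specific 10,000-fold range. After 72 h, cytotoxicity was read by CellTox Green fluorescence and viability by CellTiter-Glo luminescence (multiplexed), normalised to DMSO and benzethonium chloride controls. EC50 is the inflection point of the fitted dose-response curve (bottom asymptote free, so it can be relative for partial curves) and is censored at the highest tested concentration. Rows with DSS 0 (no meaningful response) were excluded.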

Experiment [2] deals with BT-474. As to the kind of experiment: normalised response (% of control), CellTiter-Glo; higher = more viable cells (100 = DMSO, 0 = benzethonium chloride kill control). The conditions noted are these: incubation time: 72 h. Summed up:
(§1)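 Compound was dispensed into 384-well plates at 5 concentrations in 10-fold steps spanning a 10,000-fold range specific to that compound. Breast cancer cell lines were added as 20 µl suspension and left for 72 h before CellTox Green fluorescence (485/520 nm) and then CellTiter-Glo luminescence, read after 10 min at room temperature. Each reported value is the normalised signal at one concentration, with 0.1 % DMSO set at 100 and a positive kill control at 0 on each plate.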
Background: In ATP-based viability assays light output follows the ATP content of the culture.

In another experiment the test system is CAL-120. Described as above. Particulars: incubation time: 72 h. Summed up:
as §1

Experiment [3] has as its system CAL-148. The experiment is described as above. Particulars: incubation time: 72 h. The method, boiled down: as §1
Experiment [4] relates to CAL-85-1. The description is as above. Particulars: incubation time: 72 h. Summed up: as §1
The subject of a further experiment is HCC1143. Described as above. Particulars: incubation time: 72 h. The method, boiled down:
as §1

The test system of experiment [5] is HCC1599. Described as above. Particulars: incubation time: 72 h. The method, boiled down:
as §1

In experiment [6] the test system is HCC1937. The description is as above. Particulars: incubation time: 72 h. Summed up:
as §1

The test system of a further experiment is Hs578T. Described as above. Particulars: incubation time: 72 h. The method, boiled down: as §1
Experiment [7] relates to MCF-10A. The experiment is described as above. Particulars: incubation time: 72 h. Summed up:
as §1

Experiment [8] has as its system MDA-MB-453. The experiment is described as above. The conditions noted are these: incubation time: 72 h. Summed up: as §1
The subject of another experiment is MDA-MB-468. Described as above. The conditions noted are these: incubation time: 72 h. Summed up:
as §1

The test system of the next experiment is MFM-223. The experiment is described as above. Particulars: incubation time: 72 h. The method, boiled down: as §1
A further experiment concerns SK-BR-3. The experiment is described as above. The conditions noted are these: incubation time: 72 h. Summed up:
as §1

In experiment [9] the test system is HCC1599. Described as above. The conditions noted are these: incubation time: 72 h. Summed up:
as §1
The source holds these as a separate data set.

The test system of experiment [10] is HCC1937. The description is as above. The conditions noted are these: incubation time: 72 h. Summed up:
as §1
This is another data set of the same source.

Experiment [11] has as its system CAL-148. Particulars: 72 h. The method, boiled down:
(§2)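 Plates of 384 wells holding compound in 5 µl medium received breast cancer cell lines in 20 µl suspension and were incubated 72 h. CellTiter-Blue (2.5 µl, 2 h, 37 °C) was used for viability, read at 560/590 nm, and every plate was normalised to vehicle and a positive kill control and assessed by Z'-factor. The EC50 derives from a percent-inhibition dose-response curve fit censored at the highest concentration, leaving out rows whose drug sensitivity score was zero.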

The next experiment has as its system CAL-51. Particulars: 72 h. Summed up: as §2
In experiment [12] the test system is CAL-85-1. Particulars: 72 h. Summed up: as §2
The test system of another experiment is DU-4475. The conditions noted are these: 72 h. The method, boiled down: as §2
The subject of the next experiment is HDQ-P1. The conditions noted are these: 72 h. Summed up:
as §2

The subject of experiment [13] is MDA-MB-453. Particulars: 72 h. The method, boiled down: as §2
Experiment [14] deals with BT-474. The conditions noted are these: 72 h. The method, boiled down: as §2

Turning to `Nc1nccc(-c2c(-c3ccc(F)cc3)ncn2C2CCCCC2)n1`, in the experiment on MCF-10A [1], the “EC50, CellTox Green” value is 4.81 µM.

Regarding `COc1cccc2c1C(=O)c1c(O)c3c(c(O)c1C2=O)C[C@@](O)(C(C)=O)C[C@@H]3O[C@H]1C[C@H](N)[C@H](O)[C@H](C)O1` [Daunorubicin] (100 nM), the normalised response in the experiment on BT-474 [2] came to 82.5%; in the experiment on CAL-120 it was 93.1%; in the experiment on CAL-148 [3], 64.8%; in the experiment on CAL-85-1 [4], 97.5%; in the experiment with HCC1143, 95.8%; in the experiment on HCC1599 [5] it was 103%. Besides, the normalised response in the experiment on HCC1937 [6] was 98.2%; with Hs578T it was 92.6%; in the experiment with MCF-10A [7], 103%; in the experiment with MDA-MB-453 [8] it was 139%; with MDA-MB-468, 54.9%; in the experiment on MFM-223, 115%. The normalised response in the experiment on SK-BR-3 turned out to be 91.9%.

In the case of `O=C(c1ccc(OCCN2CCCCC2)cc1)c1c(-c2ccc(O)cc2)sc2cc(O)ccc12` [Raloxifene] (1000 nM), the normalised response with BT-474 [2] worked out at 102%; in the experiment on CAL-120, 96.3%; in the experiment with CAL-148 [3], 103%; in the experiment on CAL-85-1 [4], 94.4%; in the experiment with HCC1143 it was 110%; with HCC1599 [5] it was 99.8%. For the same compound, the normalised response in the experiment with HCC1937 [6] worked out at 100%; in the experiment with Hs578T it was 107%; in the experiment with MCF-10A [7] it was 108%; in the experiment with MDA-MB-453 [8] it was 103%; with MDA-MB-468, 92.6%; with MFM-223 it was 95.6%. Besides, the normalised response in the experiment with SK-BR-3 came to 105%.

Take `Cn1cnc2c(F)c(Nc3ccc(Br)cc3F)c(C(=O)NOCCO)cc21` [MEK-162] (100 nM): the normalised response in the experiment with BT-474 [2] is 88.8%; with CAL-120 it was 94%; in the experiment with CAL-148 [3] it was 91.1%; in the experiment with CAL-85-1 [4], 99.2%; in the experiment on HCC1143 it was 90.5%; in the experiment with HCC1599 [5], 104%. Moreover, the normalised response is 95% with HCC1937 [6]; 86.2% in the experiment with Hs578T; 49% with MCF-10A [7]; 104% with MDA-MB-453 [8]; 94.7% in the experiment with MDA-MB-468; 102% in the experiment with MFM-223. This compound had a normalised response in the experiment on SK-BR-3 of 101%.

As for `CS(=O)(=O)OCCCCOS(C)(=O)=O` [Busulfan] (10000 nM), the normalised response in the experiment on BT-474 [2] is 93.7%; with CAL-120, 94.9%; with CAL-148 [3], 102%; with CAL-85-1 [4], 98.2%; in the experiment on HCC1143 it was 99.1%; with HCC1599 [5] it was 103%. The normalised response with HCC1937 [6] stood at 99.6%; with Hs578T, 109%; in the experiment on MCF-10A [7], 98.9%; in the experiment with MDA-MB-453 [8], 115%; with MDA-MB-468, 109%; with MFM-223, 107%. Besides, in the experiment with SK-BR-3, the normalised response was determined as 110%.

Consider `COC1=CC(c2cc3ccccc3[nH]2)=N/C1=C\c1[nH]c(C)cc1C` [Obatoclax] (1000 nM), for which the normalised response in the experiment with BT-474 [2] worked out at 65.4%; in the experiment with CAL-120 it was 94.2%; in the experiment with CAL-148 [3] it was 81.5%; in the experiment with CAL-85-1 [4], 76.6%; with HCC1143 it was 87.4%; with HCC1599 [5], 97.1%. For the same compound, the normalised response in the experiment with HCC1937 [6] turned out to be 63.4%; in the experiment on Hs578T, 91.7%; with MCF-10A [7], 92.8%; in the experiment on MDA-MB-453 [8] it was 96.3%; in the experiment with MDA-MB-468, 83%; in the experiment with MFM-223 it was 93.7%. This compound displayed a normalised response with SK-BR-3 of 87%.

As to `Cn1c(=O)c(F)c(Nc2ccc(I)cc2F)c2c(=O)n(C[C@@H](O)CO)cnc21` [TAK-733] (100 nM), the normalised response in the experiment on BT-474 [2] is 67.2%; with CAL-120, 76.7%; with CAL-148 [3] it was 90.4%; with CAL-85-1 [4] it was 69.8%; in the experiment with HCC1143, 93.5%; with HCC1599 [5], 93%. Further, the normalised response in the experiment with HCC1937 [6] amounted to 82.7%; with Hs578T, 96.5%; with MCF-10A [7], 38.8%; with MDA-MB-453 [8], 123%; in the experiment on MDA-MB-468 it was 79.6%; in the experiment with MFM-223, 98.8%. The compound also had a normalised response in the experiment on SK-BR-3 of 117%.

Turning to `COc1ncc(-c2ccc3nccc(-c4ccnnc4)c3c2)cc1NS(=O)(=O)c1ccc(F)cc1F` (100 nM), the normalised response with BT-474 [2] was 52.7%; in the experiment on CAL-120, 45.6%; in the experiment with CAL-148 [3], 42.5%; in the experiment on CAL-85-1 [4], 31.8%; in the experiment on HCC1143 it was 38.2%; in the experiment with HCC1599 [5] it was 55.4%. Besides, the normalised response with HCC1937 [6] came out at 54.6%; with Hs578T, 39%; in the experiment on MCF-10A [7], 31.8%; in the experiment on MDA-MB-453 [8], 20.1%; in the experiment on MDA-MB-468, 37.9%; in the experiment with MFM-223, 37%. The compound also showed a normalised response in the experiment with SK-BR-3 of 23.6%.

Regarding `C[C@@H]1C=C2C(=O)O[C@@H]3CC[C@H](C1)[C@]23O` [Galiellalactone] (5000 nM), the normalised response in the experiment on BT-474 [2] was determined as 99.3%; in the experiment with CAL-120, 103%; with CAL-148 [3], 110%; in the experiment on CAL-85-1 [4], 96.2%; in the experiment with HCC1143, 101%; in the experiment with HCC1599 [5], 98.4%. For the same compound, the normalised response was 98.4% in the experiment with HCC1937 [6]; 111% with Hs578T; 105% with MCF-10A [7]; 105% in the experiment on MDA-MB-453 [8]; 82% in the experiment on MDA-MB-468; 104% in the experiment with MFM-223. Moreover, in the experiment on SK-BR-3, the normalised response came out at 102%.

As for `CCCC(CCC)C(=O)O` [Valproic acid] (10000 nM), the results for the normalised response in the experiment on HCC1599 [9] and with HCC1937 [10] were 87.8% and 95.9%, respectively.

As for `O=c1[nH]c(=O)n([C@H]2C[C@H](O)[C@@H](CO)O2)cc1F` [Floxuridine] (1000 nM), the normalised response with BT-474 [2] worked out at 67.1%; in the experiment on CAL-120, 39.8%; with CAL-148 [3], 92.4%; in the experiment on CAL-85-1 [4], 42.7%; in the experiment with HCC1143, 94.3%; in the experiment with HCC1599 [5], 67.7%. The normalised response with HCC1937 [6] came out at 56.4%; with Hs578T, 13.5%; in the experiment with MCF-10A [7] it was 106%; in the experiment with MDA-MB-453 [8] it was 102%; with MDA-MB-468 it was 69.4%; with MFM-223 it was 104%. The compound further came in with a normalised response in the experiment with SK-BR-3 of 54.2%.

As to `C#Cc1cccc(Nc2ncnc3cc(OC)c(OCCCCCCC(=O)NO)cc23)c1` [CUDC-101] (1000 nM), the normalised response is 72.9% in the experiment on BT-474 [2]; 74.2% in the experiment with CAL-120; 60.3% in the experiment with CAL-148 [3]; 6.55% in the experiment on CAL-85-1 [4]; 48.9% in the experiment with HCC1143; 47.9% with HCC1599 [5]. The normalised response in the experiment on HCC1937 [6] is 63.6%; in the experiment on Hs578T it was 73.9%; in the experiment with MCF-10A [7] it was 28.9%; in the experiment on MDA-MB-453 [8] it was 13.5%; in the experiment with MDA-MB-468, 18.8%; in the experiment with MFM-223, 33.4%. This compound came in with a normalised response in the experiment with SK-BR-3 of 33.5%.

On to `COC1=CC(c2cc3ccccc3[nH]2)=N/C1=C\c1[nH]c(C)cc1C` [Obatoclax], for which the “EC50, CellTiter-Blue viability” value in the experiment on CAL-148 [11] came to 3.15 µM; in the experiment with CAL-51, 2.06 µM; in the experiment on CAL-85-1 [12], 0.982 µM; with DU-4475, 6.65 µM; in the experiment with HDQ-P1 it was 0.0956 µM; in the experiment on MDA-MB-453 [13], 0.632 µM. Also, in the experiment with BT-474 [14], the “EC50, CellTiter-Blue viability” value was found to be 0.124 µM.

Values taken from the supplement of paper PMC4862054.
